From patent publication US20230132823A1, “BI-FUNCTIONAL COMPOUNDS AND METHODS FOR TARGETED UBIQUITINATION OF ANDROGEN RECEPTOR” (MONTELINO THERAPEUTICS, INC., priority 2020, published 2023)
Like-named read-outs stand apart in the source and are kept apart here. Where a SMILES comes first, the peptide text is derived from it. [ ]: non-standard residue; d: D form. The star is where a group is joined. ξ: configuration not given here. X1 = O=C(COc1c(-c2csc(N3CCOCC3)n2)ccc(F)c1F)NCCCCCCN*; Dip = N[C@H](C(=O)O)C(c1ccccc1)c1ccccc1; Chg = N[C@H](C(=O)O)C1CCCCC1; NMeA = CN[C@@H](C)C(=O)O; ξP = O=C(O)C1CCCN1

How the values were obtained:
22Rv1-Enz^R cells = experiment: 22Rv1-Enz^R cell proliferation (cell count, Experimental Example 3); type: cell-based, human
Experimental: The human prostate cancer cell line, 22Rv1 has been reported to express a high level of AR-V7. Thus, 22Rv1 was seeded at 50,000 cells/well on a 24-well plate in quadruplicates and treated with test compound in concentrations ranging up to 20 μM for four days. Standard culture media was RPMI-1640 supplemented with 10% fetal bovine serum. The test compound initially was dissolved in DMSO at 50 mM. This stock solution was then diluted as needed for the indicated concentrations. At the end of the four-day period, cells were harvested using 1% trypsin and counted using an automated cell counter.
(§1) Cell Culture. Human CaP cell lines, LNCaP, 22Rv1, VCaP, PC3, and DU145 are obtained from the American Type Culture Collection (ATCC) and maintained in the standard culture media: RPMI-1640 supplemented with 10% fetal bovine serum (FBS). LNCaP, 22Rv1, and VCaP are androgen-responsive cell lines, while PC3 and DU145 are not. To establish SAT resistant CaP cell lines, LNCaP, 22Rv1, and VCaP are treated continuously with 10-50 μM abiraterone, apalutamide, darolutamide, or enzalutamide. After 3-6 months, stable cell lines are established and designated as LNCaP-Abi^R, LNCaP-Apa^R, LNCaP-Daro^R, LNCaP-Enz^R, VCaP-Abi^R, VCaP-Apa^R, VCaP-Daro^R, VCaP-Enz^R, 22Rv1-Abi^R, 22Rv1-Apa^R, 22Rv1-Daro^R and 22Rv1-Enz^R. Unless otherwise specified, the standard culture media for these SAT-resistant cell lines included 10 μM of their respective SAT. For the proteasome inhibitor study, the inhibitors MG132 and Epoxomicin are used. The E3 ligase inhibitors Heclin, Nutlin 3a, Thalidomide, and VH298 are used. Cell lines obtained from ATCC are confirmed by checking their morphology using optical microscopy, establishing baselines for cell proliferation, verifying species of origin using isoenzymology, and characterizing the cell's DNA fingerprint using short tandem repeat (STR) profiling. Mycoplasma contamination is also assessed using a PCR based detection system.

AR-FL = target: T1, AR-FL (Homo sapiens, UniProt P10275, DUP590-628/H875Y); experiment: Immunoblot analysis of AR-FL protein in CaP cells (Experimental Example 3); type: cell-based; set-up: decreased AR-V7 and AR-FL protein expression levels in 22Rv1 cells; endogenous in cells; host or cells: 22Rv1 (also VCaP, LNCaP and SAT-resistant sublines)
T1 sequence (P10275 with tags, fused parts or gaps DUP590-628/H875Y): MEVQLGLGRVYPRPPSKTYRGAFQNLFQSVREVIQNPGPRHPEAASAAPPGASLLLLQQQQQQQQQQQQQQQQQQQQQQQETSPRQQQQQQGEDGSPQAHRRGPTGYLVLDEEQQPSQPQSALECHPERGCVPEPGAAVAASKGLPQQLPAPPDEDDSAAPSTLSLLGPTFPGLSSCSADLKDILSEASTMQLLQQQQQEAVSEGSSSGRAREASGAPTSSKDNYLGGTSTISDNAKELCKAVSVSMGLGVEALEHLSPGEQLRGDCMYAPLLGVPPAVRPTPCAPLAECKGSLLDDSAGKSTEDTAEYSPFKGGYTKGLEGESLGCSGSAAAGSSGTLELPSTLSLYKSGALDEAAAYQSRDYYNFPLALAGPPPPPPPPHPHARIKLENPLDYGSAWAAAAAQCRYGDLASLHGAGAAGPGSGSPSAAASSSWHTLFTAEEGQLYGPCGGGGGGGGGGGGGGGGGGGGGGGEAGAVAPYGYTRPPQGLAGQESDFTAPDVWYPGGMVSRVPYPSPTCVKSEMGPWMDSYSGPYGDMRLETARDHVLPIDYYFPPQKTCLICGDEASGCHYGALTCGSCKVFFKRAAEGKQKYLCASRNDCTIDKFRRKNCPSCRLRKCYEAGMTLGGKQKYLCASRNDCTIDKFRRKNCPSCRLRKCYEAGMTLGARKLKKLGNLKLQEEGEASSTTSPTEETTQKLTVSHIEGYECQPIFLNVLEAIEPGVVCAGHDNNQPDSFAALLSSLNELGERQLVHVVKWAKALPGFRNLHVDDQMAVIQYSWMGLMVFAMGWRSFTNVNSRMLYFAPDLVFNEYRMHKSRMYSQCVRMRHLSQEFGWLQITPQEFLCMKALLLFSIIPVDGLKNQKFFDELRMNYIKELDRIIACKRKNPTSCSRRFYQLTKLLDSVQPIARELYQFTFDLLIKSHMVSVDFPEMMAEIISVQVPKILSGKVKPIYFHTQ
Experimental: as §1
Immunoblot Analysis. CaP cells are collected and lysed with the lysis buffer (20 mM Tris-HCl (pH 7.5), 150 mM NaCl, 1 mM Na2EDTA, 1 mM EGTA, 1% Triton, 2.5 mM sodium pyrophosphate, 1 mM beta-glycerophosphate, 1 mM Na3VO4, and 1 μg/ml leupeptin) containing 1 mM phenylmethylsulfonyl fluoride (PMSF). Cell lysates are then centrifuged and protein in the supernatant is quantified. After separating 25-50 μg of protein using SDS-PAGE, samples are incubated with AR-V7, GR, PR, ERα, AR-FL, ubiquitin, or β-actin antibodies. For AR-V7, AR-FL, PR, GR, and ERα immunoblots, primary antibody is diluted 1:1000 in 5% skim milk. For the β-actin immunoblot, 1:10000 diluted primary antibody is used. All membranes are incubated overnight at 4° C. Following the incubation with appropriate secondary antibody, immunoblots are analyzed using SuperSignal West Femto Maximum Sensitivity Substrate (ThermoFisher).

SMILES	22Rv1-EnzR cell count, % of control (22Rv1-Enz^R cells; 1 μM, 6 days)	DC50 (AR-FL; 22Rv1, 24 hours, immunoblot, read-out: DC50, concentration at which 50% of AR-FL degraded in 24 hours) [nM]	concentration from which AR-FL protein expression is decreased (immunoblot) (AR-FL; 22Rv1 cells, 24 hours, 0, 0.01, 0.1, 1 and 10 μM tested) [µM]	AR-FL protein expression level in parental and SAT-resistant 22Rv1, VCaP and LNCaP cells (AR-FL; immunoblot)	reduction of 22Rv1-Enz^R cell counts after pretreatment with MG-132 (22Rv1-Enz^R cells; 10 μM, 4 days, MG-132 (5 μM) pretreatment)	DC50 (AR-FL; 24 hours, immunoblot, read-out: DC50, concentration at which 50% of AR-FL is degraded in 24 hours) [nM]
Cc1ncsc1-c1ccc([C@H](C)NC(=O)[C@@H]2C[C@@H](O)CN2C(=O)[C@@H](NC(=O)CCCCNC(=O)COc2c(-c3csc(N4CCOCC4)n3)ccc(F)c2F)C(C)(C)C)cc1 [Example 16, (2S,4R)-1-((S)-2-(5-(2-(2,3-difluoro-6-(2-morpholinothiazol-4-yl)phenoxy)acetamido)pentanamido)-3,3-dimethylbutanoyl)-4-hydroxy-N-((S)-1-(4-(4-methylthiazol-5-yl)phenyl)ethyl)pyrrolidine-2-carboxamide]	about 45 % of control	2000	1	decreases the protein expression levels		
CN[C@@H](C)C(=O)N[C@H](C(=O)N1CCCC1C(=O)N[C@H](C(=O)NCCCCCCNC(=O)COc1c(-c2csc(N3CCOCC3)n2)ccc(F)c1F)C(c1ccccc1)c1ccccc1)C1CCCCC1 (stereo partly drawn) [Example 26, (S)-1-((S)-2-cyclohexyl-2-((S)-2-(methylamino)propanamido)acctyl)-N-((S)-1-((6-(2-(2,3-difluoro-6-(2-morpholinothiazol-4-yl)phenoxy)acetamido)hexyl)amino)-1-oxo-3,3-diphenylpropan-2-yl)pyrrolidine-2-carboxamide] (H-[NMeA][Chg][ξP][Dip]-X1)					substantially blocked	< 500
